{
  "source": "patent US12364669B2",
  "about": "“Device and method for transdermal delivery of cannabidiol” (Remy Biosciences, Inc., priority 2020, dated 2025)",
  "test": "Diffusion of CBD from transdermal devices through a human cadaver epidermis, Franz Diffusion Cell method",
  "format": "in vitro ADME",
  "settings": "Example 2, FIG. 4; reservoir device, 5 percent CBD in ethanol/water 70/30; with hydrophilic porous membrane 24 versus membrane omitted",
  "protocol": "The effects of using a hydrophobic, porous membrane versus a hydrophilic, porous membrane (such as membrane 24) in reservoir transdermal device 20 are studied in this example. […] The backing 22 is an occlusive backing film (PE/PET from 3M). Hydroxy ethyl cellulose is added to the solution to yield a thixotropic preparation 27. A volume of 300 microliters of the preparation is placed in the reservoir 26.\nThe skin adhesive 30 is a BIO PSA 7-4301 adhesive coated to a thickness of 15 g/m^2 on side 36 of membrane 24. An overlay adhesive patch is placed over the reservoir which forms an island in the middle. The overlay assures adhesion of the reservoir to the skin. The device 20 is contacted with a human cadaver epidermis, and diffusion through the epidermis is measured using the Franz Diffusion Cell method.\nIn a first run, membrane 24 is a Lydall® Evopor™ 5E02A, hydrophilic, microporous membrane (of 0.2 micrometers pore size). […]\nThe device 20 is contacted with a human cadaver epidermis, and diffusion through the epidermis is measured using the Franz Diffusion Cell method. […]\nThis example is conducted using three reservoir transdermal devices such as those of Example 1, with each having the hydrophilic, porous membrane described therein. […] Diffusion through a human cadaver epidermis is measured using the Franz Diffusion Method. […]",
  "data": [
    {"smiles": "C=C(C)[C@@H]1CCC(C)=C[C@H]1c1c(O)cc(CCCCC)cc1O", "note": "[CBD, Cannabidiol]", "values": [
      {"measurement": "permeability of CBD through the skin (cumulative flux versus time)", "value": "the same regardless of whether the membrane 24 is provided"}
    ]}
  ]
}
